# Source: patent publication US20150320773A1, “TREATMENT OF INFLAMMATION” (Vascular Biogenics Ltd., priority 2011, published 2015)
# Read-outs that look alike come from different tables or passages of the source.
# Experiments:
# TLR5 [1] = molecular target: TLR5 (Mus musculus, UniProt Q9JLF7); conditions: mouse BMDCs; flagellin; 1.7, 8.5 or 17 μM
# TLR9 = TLR9 (Mus musculus, UniProt Q9EQU3); conditions: mouse BMDCs; CpG; 1.7, 8.5 or 17 μM
# TLR5 [2] = molecular target: TLR5 (Homo sapiens, UniProt O60602); conditions: human monocytes; flagellin; 1.7, 8.5 or 17 μM
# Chain of TLR5 (Homo sapiens, UniProt O60602) (O60602 21-858): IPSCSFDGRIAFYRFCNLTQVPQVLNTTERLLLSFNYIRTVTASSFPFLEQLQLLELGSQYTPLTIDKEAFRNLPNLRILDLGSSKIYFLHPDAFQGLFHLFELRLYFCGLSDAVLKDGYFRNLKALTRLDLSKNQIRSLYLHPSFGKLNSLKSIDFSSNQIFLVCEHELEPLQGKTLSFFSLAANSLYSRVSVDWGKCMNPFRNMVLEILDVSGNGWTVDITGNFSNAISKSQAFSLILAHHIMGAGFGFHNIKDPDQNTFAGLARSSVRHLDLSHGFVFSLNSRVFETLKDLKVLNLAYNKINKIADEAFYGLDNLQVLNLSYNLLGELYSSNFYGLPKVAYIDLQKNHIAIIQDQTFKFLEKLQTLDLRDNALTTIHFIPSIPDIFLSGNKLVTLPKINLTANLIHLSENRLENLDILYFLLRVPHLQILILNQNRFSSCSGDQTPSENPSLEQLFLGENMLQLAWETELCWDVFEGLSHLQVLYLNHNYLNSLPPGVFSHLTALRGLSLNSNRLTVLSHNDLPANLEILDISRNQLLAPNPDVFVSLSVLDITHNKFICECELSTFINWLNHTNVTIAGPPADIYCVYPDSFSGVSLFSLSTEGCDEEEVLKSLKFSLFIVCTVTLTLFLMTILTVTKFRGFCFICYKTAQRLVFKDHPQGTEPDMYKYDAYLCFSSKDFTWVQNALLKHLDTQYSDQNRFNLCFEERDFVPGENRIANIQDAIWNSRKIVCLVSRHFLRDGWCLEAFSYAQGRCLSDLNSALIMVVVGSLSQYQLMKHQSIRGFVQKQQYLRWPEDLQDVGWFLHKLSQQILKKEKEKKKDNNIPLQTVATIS
# TLR2 = TLR2 (Homo sapiens, UniProt O60603); conditions: 1 μM SAA, 5 μg/ml VB-201
# Chain of TLR2 (O60603 21-784): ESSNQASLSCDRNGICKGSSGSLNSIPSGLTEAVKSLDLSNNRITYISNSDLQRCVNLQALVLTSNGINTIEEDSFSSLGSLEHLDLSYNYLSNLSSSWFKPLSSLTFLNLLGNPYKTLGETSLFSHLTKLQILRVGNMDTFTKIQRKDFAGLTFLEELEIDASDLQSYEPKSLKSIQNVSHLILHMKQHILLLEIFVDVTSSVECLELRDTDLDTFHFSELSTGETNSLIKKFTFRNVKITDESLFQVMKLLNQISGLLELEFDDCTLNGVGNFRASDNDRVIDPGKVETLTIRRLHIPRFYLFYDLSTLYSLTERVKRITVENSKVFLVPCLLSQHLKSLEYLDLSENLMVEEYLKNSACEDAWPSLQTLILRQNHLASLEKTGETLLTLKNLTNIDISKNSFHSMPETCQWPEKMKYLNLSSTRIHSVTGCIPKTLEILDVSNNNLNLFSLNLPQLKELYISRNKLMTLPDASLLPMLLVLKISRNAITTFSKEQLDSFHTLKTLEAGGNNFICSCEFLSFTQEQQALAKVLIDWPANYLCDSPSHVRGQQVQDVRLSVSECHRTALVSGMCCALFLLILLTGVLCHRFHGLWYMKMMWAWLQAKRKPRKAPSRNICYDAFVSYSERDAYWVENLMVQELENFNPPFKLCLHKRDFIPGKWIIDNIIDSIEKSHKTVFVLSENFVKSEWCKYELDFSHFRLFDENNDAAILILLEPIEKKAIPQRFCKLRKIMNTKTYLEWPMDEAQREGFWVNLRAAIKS
# RAW 264.7 macrophages = conditions: 0, 8.5 or 17 μM VB-201; streptavidin-APC
# Text: Cells were washed and LPS binding was detected using streptavidin-APC.
# CD14 is known to bind to lipopolysaccharide (LPS).
# human monocytes = assay: Cell viability assay (MTS) of human monocytes; type: cell-based; conditions: 16 hours, doses of 1-10 j±g/ml
# CCR2B = CCR2B (Homo sapiens, UniProt P41597); conditions: escalating doses
# Chain of CCR2B (P41597 1-360 isoform P41597-2): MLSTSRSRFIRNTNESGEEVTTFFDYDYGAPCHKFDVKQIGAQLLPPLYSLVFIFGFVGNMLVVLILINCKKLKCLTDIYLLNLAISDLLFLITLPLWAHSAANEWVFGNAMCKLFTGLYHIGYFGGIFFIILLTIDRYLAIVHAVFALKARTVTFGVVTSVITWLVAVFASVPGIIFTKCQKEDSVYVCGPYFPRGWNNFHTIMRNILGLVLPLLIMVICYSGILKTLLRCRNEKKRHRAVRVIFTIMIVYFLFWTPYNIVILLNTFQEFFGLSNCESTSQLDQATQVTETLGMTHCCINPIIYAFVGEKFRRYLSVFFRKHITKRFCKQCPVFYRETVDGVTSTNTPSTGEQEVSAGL
# Method: (§1) Analyses were performed by Millipore GPCR Profiler Service, by measuring intracellular calcium signal in real time using FLIPR^TETRA device. […] Antagonist percentage inhibition was referenced to EC80 control wells for each tested GPCR.
# CCR5 = CCR5 (Homo sapiens, UniProt P51681); conditions: escalating doses
# Chain of CCR5 (P51681 whole entry): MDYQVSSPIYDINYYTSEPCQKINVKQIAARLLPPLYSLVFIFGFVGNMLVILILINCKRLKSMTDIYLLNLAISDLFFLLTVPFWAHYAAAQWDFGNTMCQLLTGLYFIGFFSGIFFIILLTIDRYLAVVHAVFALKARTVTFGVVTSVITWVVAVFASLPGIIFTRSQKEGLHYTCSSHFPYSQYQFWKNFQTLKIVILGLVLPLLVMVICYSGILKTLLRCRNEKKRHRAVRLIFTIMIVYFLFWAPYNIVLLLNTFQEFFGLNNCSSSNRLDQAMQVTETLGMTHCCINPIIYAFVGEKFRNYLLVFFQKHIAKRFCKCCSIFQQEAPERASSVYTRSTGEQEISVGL
# Method: as §1
# [3] = system: Human monocyte-derived dendritic cells (DCs); assay: cAMP accumulation assay; type: cell-based; conditions: 4 hours; VB-201 1-5 μg/ml; oxidized PAPC escalating doses; forskolin positive control
# Method: Cells were incubated for 4 hours at 37° C. in the presence of the phosphodiesterase inhibitors IBMX (Calbiochem; 0.5 mM) and RO-20-1724 (Biomol; 0.5 mM) to prevent cAMP degredation. For the quantification of [^3H]cAMP formation, the incubation was terminated by removal of the medium and addition of 2.5% perchloric acid containing 0.1 mM unlabeled cAMP (Sigma), followed by neutralization with 4.2 M KOH and 1.85 M K2CO3.
# C57B6J WT mice = assay: Thioglycollate-induced peritonitis model (monocyte migration in vivo); design: species or system mouse; conditions: oral
# Method: After 5 days of administration, thioglycollate was injected to the peritoneal cavity of the mice to induce monocyte migration. Four days later, mice were sacrificed and migrating cells were collected from the peritoneum and counted by hemocytometer. Data are mean±SE, collected from 3-4 independent experiments. […] FIG. 26B is a FACS analysis. To characterize their identity, migrating cells were stained with the macrophage marker F4/80 and the neutrophils marker GR-1.
# In this model, injection of thioglycollate to the peritoneal cavity induces a “sterile” inflammatory response recruiting peripheral monocytes to the peritoneum, where they differentiate into macrophages (Li, Y. M., et al., J. Immunol. Methods. 1997; 201:183-188). […] Upon sacrifice, the number and identity of the cells accumulating in the peritoneum was determined by FACS, and plasma samples were taken for quantification by Liquid Chromatography-Tandem Mass Spectrometry. Three days after thioglycollate injection 95% of the cells in the peritoneum were macrophages (F4/80 positive, GR-1 negative cells) (FIG. 26B).
# patients = assay: Vascular inflammation in patients (statin therapy); type: in vivo, human; conditions: in some instances
# Method: In some examples according to any one of the embodiments of Methods 1a, 1b, 2, and 3 described herein, the vascular inflammation is measured using positron emission computed tomography (PET/CT) imaging quantifying 18-fluorodeoxyglucose (18-FDG) uptake as a target to background ratio (TBR), e.g., as described herein, or in Example 8 of WO2011/083465.
# TLR4 = molecular target: T1, TLR4 (Mus musculus, UniProt Q9QUK6)
# T1 sequence (Q9QUK6 26-835): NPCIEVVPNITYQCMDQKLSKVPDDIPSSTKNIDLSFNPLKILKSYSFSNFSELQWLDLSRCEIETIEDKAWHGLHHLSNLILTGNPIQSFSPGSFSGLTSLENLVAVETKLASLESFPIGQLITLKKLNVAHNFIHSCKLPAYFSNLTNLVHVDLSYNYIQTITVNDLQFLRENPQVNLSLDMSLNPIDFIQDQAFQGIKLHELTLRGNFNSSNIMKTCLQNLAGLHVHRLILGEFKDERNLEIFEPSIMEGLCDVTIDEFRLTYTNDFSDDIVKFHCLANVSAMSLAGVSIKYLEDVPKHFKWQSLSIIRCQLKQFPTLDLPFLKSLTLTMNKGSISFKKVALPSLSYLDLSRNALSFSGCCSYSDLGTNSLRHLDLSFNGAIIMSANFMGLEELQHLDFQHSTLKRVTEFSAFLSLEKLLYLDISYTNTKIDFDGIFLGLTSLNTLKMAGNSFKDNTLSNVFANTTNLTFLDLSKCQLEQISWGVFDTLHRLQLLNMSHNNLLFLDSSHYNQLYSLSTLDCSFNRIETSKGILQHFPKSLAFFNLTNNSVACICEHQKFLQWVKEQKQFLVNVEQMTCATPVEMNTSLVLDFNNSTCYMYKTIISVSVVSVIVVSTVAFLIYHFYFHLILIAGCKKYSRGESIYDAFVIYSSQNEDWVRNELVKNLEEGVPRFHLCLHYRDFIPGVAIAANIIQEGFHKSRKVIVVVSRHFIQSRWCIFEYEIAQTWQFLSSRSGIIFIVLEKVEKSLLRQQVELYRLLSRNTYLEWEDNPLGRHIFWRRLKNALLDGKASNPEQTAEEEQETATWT
# T1 sequence (Q9JHF9 19-160 partner): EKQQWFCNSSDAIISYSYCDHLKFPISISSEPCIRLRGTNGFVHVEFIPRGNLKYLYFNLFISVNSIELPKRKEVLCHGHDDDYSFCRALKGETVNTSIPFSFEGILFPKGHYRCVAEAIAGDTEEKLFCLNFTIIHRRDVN
# Method: Cells were washed and re-suspended in lysis buffer containing 1:100 dithiothreitol (DTT) (Bio-Lab), and phosphatase and protease inhibitors (Thermo Scientific). Samples were loaded on a precasted Criterion TGX gel (BIO-RAD, UK) and transferred onto nitrocellulose membrane. Blots were blocked with 5% milk or bovine serum albumin (BSA) in TBST (Tris buffer saline with TWEEN 20) for 1 hour, followed by incubation with primary and secondary antibodies. Membranes were developed using the ECL kit (Thermo Scientific).
# Toll-like receptors were activated in mouse BMDCs (bone marrow dendritic cells) by specific agonists, and the effect of receptor activation was determined via Western blot for phosphorylation of p38 MAP kinase, which is downstream of TLRs.
# HMG-CoA reductase = HMG-CoA reductase (Homo sapiens, UniProt P04035); conditions: concentrations of up to 10 μM; data not shown
# Chain of HMG-CoA reductase (P04035 whole entry, species assumed): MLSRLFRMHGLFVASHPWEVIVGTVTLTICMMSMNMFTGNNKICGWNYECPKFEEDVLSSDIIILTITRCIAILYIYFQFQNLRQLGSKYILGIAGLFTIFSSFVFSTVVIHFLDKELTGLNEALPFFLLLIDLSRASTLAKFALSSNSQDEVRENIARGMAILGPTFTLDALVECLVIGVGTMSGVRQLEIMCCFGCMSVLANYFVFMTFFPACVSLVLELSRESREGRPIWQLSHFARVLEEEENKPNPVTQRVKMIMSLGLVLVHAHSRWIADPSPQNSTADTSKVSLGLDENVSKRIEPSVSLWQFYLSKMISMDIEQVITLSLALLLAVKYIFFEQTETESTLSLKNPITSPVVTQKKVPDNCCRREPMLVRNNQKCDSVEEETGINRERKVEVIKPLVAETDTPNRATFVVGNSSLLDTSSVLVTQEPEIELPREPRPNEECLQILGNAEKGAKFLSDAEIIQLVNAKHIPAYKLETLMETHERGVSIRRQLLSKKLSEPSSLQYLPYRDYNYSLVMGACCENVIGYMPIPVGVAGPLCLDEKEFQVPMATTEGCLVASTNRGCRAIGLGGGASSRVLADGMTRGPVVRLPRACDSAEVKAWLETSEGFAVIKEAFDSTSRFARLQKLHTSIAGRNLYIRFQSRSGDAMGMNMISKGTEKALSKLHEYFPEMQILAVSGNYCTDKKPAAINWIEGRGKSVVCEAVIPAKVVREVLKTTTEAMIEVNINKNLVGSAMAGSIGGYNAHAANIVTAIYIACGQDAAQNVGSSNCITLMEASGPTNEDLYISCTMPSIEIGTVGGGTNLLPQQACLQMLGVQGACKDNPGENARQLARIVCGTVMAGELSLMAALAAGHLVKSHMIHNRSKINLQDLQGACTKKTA
# TNFα receptor = conditions: concentrations of up to 17 μM; data not shown
# Chain of TLR5 (Mus musculus, UniProt Q9JLF7) (Q9JLF7 27-859): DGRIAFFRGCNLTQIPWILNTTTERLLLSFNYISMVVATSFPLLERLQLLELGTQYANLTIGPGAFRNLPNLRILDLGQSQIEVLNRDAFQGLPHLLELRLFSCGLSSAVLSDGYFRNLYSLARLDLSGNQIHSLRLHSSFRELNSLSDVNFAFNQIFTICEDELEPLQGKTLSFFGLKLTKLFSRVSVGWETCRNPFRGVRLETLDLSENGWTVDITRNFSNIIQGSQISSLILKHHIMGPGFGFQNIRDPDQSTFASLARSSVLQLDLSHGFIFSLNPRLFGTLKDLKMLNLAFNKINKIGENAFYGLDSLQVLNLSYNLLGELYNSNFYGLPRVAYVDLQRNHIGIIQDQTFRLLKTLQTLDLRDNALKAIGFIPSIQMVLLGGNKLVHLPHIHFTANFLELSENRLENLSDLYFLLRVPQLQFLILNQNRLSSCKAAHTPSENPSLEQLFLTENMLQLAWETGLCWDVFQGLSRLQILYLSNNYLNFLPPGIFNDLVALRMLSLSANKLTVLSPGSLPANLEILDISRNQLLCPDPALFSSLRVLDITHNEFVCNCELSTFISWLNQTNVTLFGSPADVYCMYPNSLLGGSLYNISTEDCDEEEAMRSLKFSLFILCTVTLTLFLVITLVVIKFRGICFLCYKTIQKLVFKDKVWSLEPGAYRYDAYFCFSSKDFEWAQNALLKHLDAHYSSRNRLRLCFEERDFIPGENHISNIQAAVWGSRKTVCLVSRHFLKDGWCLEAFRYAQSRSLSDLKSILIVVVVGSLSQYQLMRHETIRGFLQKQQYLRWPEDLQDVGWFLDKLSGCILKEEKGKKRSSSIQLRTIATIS
# Chain of TLR9 (Q9EQU3 26-1032): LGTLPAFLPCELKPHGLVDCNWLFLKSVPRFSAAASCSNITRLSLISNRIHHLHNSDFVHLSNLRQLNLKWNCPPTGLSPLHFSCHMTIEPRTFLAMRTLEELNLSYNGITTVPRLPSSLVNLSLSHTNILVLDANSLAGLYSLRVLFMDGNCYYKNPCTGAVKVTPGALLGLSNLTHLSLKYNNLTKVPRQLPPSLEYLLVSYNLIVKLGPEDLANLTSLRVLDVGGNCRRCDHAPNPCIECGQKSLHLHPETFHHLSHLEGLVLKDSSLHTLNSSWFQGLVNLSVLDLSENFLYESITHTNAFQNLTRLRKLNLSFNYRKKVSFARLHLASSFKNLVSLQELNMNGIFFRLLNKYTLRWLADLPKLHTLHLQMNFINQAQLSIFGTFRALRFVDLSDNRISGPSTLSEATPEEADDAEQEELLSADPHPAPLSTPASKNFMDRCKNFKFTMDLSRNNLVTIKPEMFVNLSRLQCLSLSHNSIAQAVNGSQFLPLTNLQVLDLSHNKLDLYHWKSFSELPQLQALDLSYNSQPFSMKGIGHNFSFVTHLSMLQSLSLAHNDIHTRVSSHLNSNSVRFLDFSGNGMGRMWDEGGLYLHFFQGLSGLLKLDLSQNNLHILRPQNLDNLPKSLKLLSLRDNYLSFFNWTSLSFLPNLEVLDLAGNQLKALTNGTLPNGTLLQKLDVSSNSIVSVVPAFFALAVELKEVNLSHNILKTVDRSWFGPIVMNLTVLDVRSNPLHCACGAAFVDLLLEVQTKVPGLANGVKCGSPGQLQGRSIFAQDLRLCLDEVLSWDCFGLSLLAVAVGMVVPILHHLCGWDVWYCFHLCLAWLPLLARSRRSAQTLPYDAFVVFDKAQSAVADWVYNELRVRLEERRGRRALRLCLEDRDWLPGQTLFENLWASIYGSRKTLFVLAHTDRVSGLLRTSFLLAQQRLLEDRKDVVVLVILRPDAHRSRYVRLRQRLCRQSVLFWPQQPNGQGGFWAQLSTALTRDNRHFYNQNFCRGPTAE
smiles,measurement,setting,value
"CCCCCCCCCCCCCCCCOC[C@H](COP(=O)([O-])OCC[N+](C)(C)C)OCCCCC(=O)O [VB-201, (R)-1-hexadecyl-2-(4′-carboxyl)butyl-sn-glycero-3-phosphocholine]",p38 phosphorylation following activation of TLR5,TLR5 [1],no apparent effect
same,p38 phosphorylation following activation of TLR9,TLR9,no apparent effect
same,"activation of p38, ERK1/2 and the NFκB pathway following TLR5 activation",TLR5 [2],no apparent effect
same,"activation of p38, ERK1/2 and the NFκB pathway following activation of TLR2 by serum amyloid A",TLR2; THP-1 cells,"inhibited activation of p38, ERK1/2 and the NFκB pathway"
same,"activation of p38, ERK1/2 and the NFκB pathway following activation of TLR2 by serum amyloid A",TLR2; human CD14+ cells,"inhibited activation of p38, ERK1/2 and the NFκB pathway"
same,binding of biotinylated LPS to macrophages,RAW 264.7 macrophages,inhibited binding of biotinylated LPS to macrophages in a dose dependent manner
same,monocyte viability,human monocytes,no effect on monocyte viability
same,antagonistic effect against CCR2B,CCR2B,did not induce an antagonistic effect
same,antagonistic effect against CCR5,CCR5,did not induce an antagonistic effect
same,intracellular cAMP levels,[3],not affected
same,inhibition of peritoneal macrophage accumulation,C57B6J WT mice; 0.04 mg/kg/day,no inhibitory effect
same,inhibition of peritoneal macrophage accumulation,C57B6J WT mice; 0.4 mg/kg,~25%
same,reduction in the number of peritoneal macrophages relative to PBS-treated animals,C57B6J WT mice; 4 mg/kg,> 60%
same,effect on vascular inflammation in patients undergoing statin therapy versus patients not being treated with statins,patients,slightly better
same,LPS-induced signaling,TLR4; RAW 264.7 murine macrophages,inhibited LPS-induced signaling in a dose-dependent manner
same,p38 phosphorylation following activation of TLR4,"TLR4; mouse BMDCs, LPS, 1.7, 8.5 or 17 μM",inhibited p^38 phosphorylation in a dose-dependent manner
same,"activation of p38, ERK1/2 and the NFκB pathway following activation of TLR4","TLR4; mouse peritoneal macrophages, LPS, 1.7, 8.5 or 17 μM","inhibited activation of p38, ERK1/2 and the NFκB pathway in a dose-dependent manner"
same,inhibition of HMG-CoA reductase,HMG-CoA reductase,No inhibition
same,inhibition of TNFα receptor,TNFα receptor,No inhibition
